Laboratory results from US20080167444A1, “Abc Transporter Inhibitor” (priority 2004, published 2008).
pIC50: −log10 of the molar value. “And” between values parts separate entries of the source, which are not always exact repeats. Identical values can stand only once.

Assays:
[1] = target: T1, PDR5 protein (Saccharomyces cerevisiae, UniProt P33302); assay: Growth inhibition of yeast with overexpressed PDR5 in the presence of cycloheximide or cerulenin (absorbance at 660 nm); format: cell-based; conditions: for pIC50: IC50 (concentration for 50% growth-inhibition), IC50 of cycloheximide or cerulenin, without or with addition of 5 μg/mL enniatin mixture or FK-506; for inhibition of growth of the yeast with overexpressed PDR5: test drug at 5 μg/mL, cycloheximide or cerulenin present, static culture 30° C. 24 hours
T1 construct: expressed in transfected cells; host or cells: Saccharomyces cerevisiae W303 (MAT a Δsyr/erg3::HIS3 Δpdr5::LEU2 Δsnq2::HIS3)
Experimental: (§1) Yeast with overexpressed PDR5 by transformation of the host yeast (Saccharomyces cerevisiae W303 (MAT a Δsyr/erg3::HIS3 Δpdr5::LEU2 Δsnq2::HIS3)) with the PDR5 expression vector and the host yeast were inoculated separately in 4 mL each of the minimum medium followed by shaking culture at 30° C. for 12 hours. To a 96-well microtiter plate to which cycloheximide or cerulenin of various concentrations had been added, was added purified enniatin B, B1, D, or enniatin mixture of various concentrations, followed by inoculation of the above-mentioned yeast. The volume per well was adjusted to 200 μL by addition of the minimum medium. After static culture at 30° C. for 24 hours, the extent of growth of yeast was determined for evaluation of the growth-inhibiting activity of the test drug against the yeast with overexpressed PDR5 and against the host yeast. The extent of growth of yeast was determined by measurement of absorbance at 660 nm using a microtiter plate reader (MTP-500; CORONA). The growth-inhibiting activity against the yeast with overexpressed PDR5 and against the host yeast was also determined for immunosuppressor FK-506, the positive control, which is known to inhibit yeast PDR5 protein and human MDR1 protein (P-glycoprotein).

[2] = system: host yeast (Saccharomyces cerevisiae W303 (MAT a Δsyr/erg3::HIS3 Δpdr5::LEU2 Δsnq2::HIS3)); assay: Growth inhibition of the host yeast (PDR5 and SNQ2 deleted); format: cell-based; conditions: test drug elevated to 5 μg/mL; static culture 30° C. 24 hours
Experimental: as §1

[3] = system: PDR5 gene; assay: PDR5 transcription activity, β-galactosidase (lacZ) reporter downstream of Pdr5 promoter; format: cell-based, yeast; conditions: drug at final concentration 25 μg/mL, 8 hours; compared with no addition
Experimental: The effect of enniatin on expression of PDR5 gene was analyzed based on measurement of the PDR5 transcription activity using β-galactosidase gene as the reporter gene. Yeast, where had been introduced a recombinant plasmid obtained by fusion of β-galactosidase gene (lacZ) in the downstream of Pdr5 promoter, was subjected to shaking culture at 30° C. for 8 hours in 4 mL of YEPD medium, and a quantity of yeast corresponding to 1.0×10^6 cells was inoculated in 4 mL of the medium. At the same time, enniatin B, B1, D, enniatin mixture, or FK-506 was added to the final concentration of 25 μg/mL. After shaking culture at 30° C. for 8 hours, 1.0×10^7 yeast cells were collected. The cells were then suspended in 1 mL of Z buffer solution (60 mM disodium hydrogen phosphate, 40 mM sodium dihydrogen phosphate, 10 mM potassium chloride, 1 mM magnesium sulfate, 50 mM […], pH 7.0). The cell suspension was treated with 45 μL of chloroform and 30 μL of 0.1% sodium dodecyl sulfate at 30° C. for 5 minutes. The suspension was then treated with 200 μL of o-NPG (o-nitrophenyl-β-D-galactopyranoside) of 4 mg/mL at 30° C. for 10 minutes. After reaction was stopped by addition of 500 μL of 1 M sodium carbonate, absorbance at 420 nm was measured to determine the activity of β-galactosidase. The activity of β-galactosidase was calculated using a unit=1000×A420/10 (reaction time). […] Thus it could be confirmed that inhibition of PDR5 function by enniatin B, B1, D, enniatin mixture, or FK-506 is not ascribable to the inhibition of transcription of PDR5 gene.

[4] = target: T1, PDR5 protein; assay: Rhodamine 6G accumulation in yeast with overexpressed PDR5 (fluorescence microscope); format: cell-based; conditions: drug at final concentration 25 μg/mL, 2 hours, then rhodamine 6G 30 minutes
Experimental: (§2) The above-mentioned strain with overexpressed PDR5 and the above-mentioned host yeast were separately subjected to shaking culture at 30° C. for 12 hours in 4 mL of the minimum medium. Then a quantity of yeast corresponding to 1.0×10^6 cells was inoculated to 4 mL of the minimum medium. Enniatin B, B1, D, enniatin mixture, or FK-506 was added to the final concentration of 25 μg/mL, and after shaking culture at 30° C. for 2 hours, 15 μL of rhodamine 6G (1 mg/mL) was added followed by culture under the same conditions for 30 minutes. After culture, the culture was washed twice with 2% glucose solution in PBS (phosphate-buffered saline) and the fluorescence in yeast cells was observed under a fluorescence microscope (Nicon ECLIPSE E400, using G-2A filter).

[5] = system: PDR5-deleted host yeast; assay: Rhodamine 6G accumulation in PDR5-deleted host yeast (fluorescence microscope); format: cell-based, Saccharomyces cerevisiae; conditions: drug at final concentration 25 μg/mL; compared with no addition of the drug
Experimental: as §2

[6] = system: PDR5 protein; assay: Western blotting of PDR5 protein (quantity and stability); format: cell-based, yeast; conditions: after addition of the drug
Excerpt: The effects of enniatin B, B1, D, and enniatin mixture on the quantity of PDR5 protein as the translation product and on the stability of PDR5 protein were investigated by Western blotting of PDR5 protein. After addition of enniatin B, B1, D, or enniatin mixture, quantitative change of PDR5 protein was not observed, which confirmed that apparent inhibition of the function of PDR5 gene product is ascribable neither to inhibition of translation of PDR5 protein nor to reduced stability of the protein through acceleration of decomposition of PDR5 protein.

T1 sequence (P33302 whole entry): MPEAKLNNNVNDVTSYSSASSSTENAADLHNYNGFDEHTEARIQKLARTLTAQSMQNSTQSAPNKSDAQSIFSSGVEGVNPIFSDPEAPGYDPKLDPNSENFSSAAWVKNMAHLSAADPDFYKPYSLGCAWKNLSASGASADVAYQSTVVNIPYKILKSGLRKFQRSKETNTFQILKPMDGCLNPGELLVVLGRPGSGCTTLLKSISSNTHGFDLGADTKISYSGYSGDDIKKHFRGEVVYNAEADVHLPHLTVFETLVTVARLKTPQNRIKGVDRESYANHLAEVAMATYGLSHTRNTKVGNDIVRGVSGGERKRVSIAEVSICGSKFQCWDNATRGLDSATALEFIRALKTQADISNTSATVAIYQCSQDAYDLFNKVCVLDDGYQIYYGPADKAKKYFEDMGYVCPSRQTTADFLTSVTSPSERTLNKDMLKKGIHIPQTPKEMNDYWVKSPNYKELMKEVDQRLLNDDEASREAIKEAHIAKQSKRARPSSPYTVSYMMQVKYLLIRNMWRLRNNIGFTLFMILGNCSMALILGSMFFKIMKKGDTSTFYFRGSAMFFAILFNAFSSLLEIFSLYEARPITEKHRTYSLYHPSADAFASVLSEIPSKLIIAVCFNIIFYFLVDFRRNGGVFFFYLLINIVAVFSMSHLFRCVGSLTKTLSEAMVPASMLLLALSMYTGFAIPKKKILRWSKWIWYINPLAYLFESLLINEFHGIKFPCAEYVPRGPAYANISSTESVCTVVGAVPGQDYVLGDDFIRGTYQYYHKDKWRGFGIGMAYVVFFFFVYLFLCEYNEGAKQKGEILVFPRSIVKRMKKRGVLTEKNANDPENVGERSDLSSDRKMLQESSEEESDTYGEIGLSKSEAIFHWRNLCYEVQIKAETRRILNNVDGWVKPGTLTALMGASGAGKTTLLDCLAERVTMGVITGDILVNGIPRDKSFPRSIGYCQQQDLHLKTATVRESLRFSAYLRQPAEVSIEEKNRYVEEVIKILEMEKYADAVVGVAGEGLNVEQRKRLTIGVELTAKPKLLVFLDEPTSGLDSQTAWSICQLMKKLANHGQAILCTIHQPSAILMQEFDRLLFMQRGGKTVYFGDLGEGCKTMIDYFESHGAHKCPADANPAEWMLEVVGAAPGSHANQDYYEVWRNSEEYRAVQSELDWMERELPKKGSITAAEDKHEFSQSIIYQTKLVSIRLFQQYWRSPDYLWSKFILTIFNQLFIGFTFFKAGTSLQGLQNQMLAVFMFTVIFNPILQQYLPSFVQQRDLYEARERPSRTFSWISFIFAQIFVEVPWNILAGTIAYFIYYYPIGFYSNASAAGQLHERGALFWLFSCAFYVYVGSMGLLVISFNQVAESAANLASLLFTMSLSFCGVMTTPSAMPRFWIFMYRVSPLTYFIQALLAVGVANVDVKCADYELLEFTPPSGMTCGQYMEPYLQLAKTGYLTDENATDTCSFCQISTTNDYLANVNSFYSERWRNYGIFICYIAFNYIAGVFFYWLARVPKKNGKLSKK

| SMILES | pIC50 [1] | inhibition of growth of the host yeast (cytotoxicity) [2] | activity of β-galactosidase (PDR5 transcription activity) [3] | inhibition of growth of the yeast with overexpressed PDR5 [1] | rhodamine 6G accumulation in yeast with overexpressed PDR5 [4] | rhodamine 6G accumulation in PDR5-deleted host yeast [5] | quantitative change of PDR5 protein (Western blotting) [6] |
| --- | --- | --- | --- | --- | --- | --- | --- |
| C[C@@H]1C[C@@H]([C@H](O)CC2CC(=O)NC(=O)C2)C(=O)[C@@H](C)C1 [Cycloheximide] | 6.34 and 6.36 | – | – | – | – | – | – |
| CC[C@H](C)[C@H]1C(=O)O[C@H](C(C)C)C(=O)N(C)[C@@H](C(C)C)C(=O)O[C@H](C(C)C)C(=O)N(C)[C@@H](C(C)C)C(=O)O[C@H](C(C)C)C(=O)N1C [enniatin B1, Enniatin B1] | – | not observed | not different from that without addition of the drug | completely | accumulated rhodamine 6G | rhodamine 6G was accumulated in yeast cells | not observed |
| C/C=C/C/C=C/CCC(=O)[C@H]1O[C@H]1C(N)=O [Cerulenin] | 5.82 and 5.80 | – | – | – | – | – | – |
| CC(C)CC1C(=O)OC(C(C)C)C(=O)N(C)C(C(C)C)C(=O)OC(C(C)C)C(=O)N(C)C(C(C)C)C(=O)OC(C(C)C)C(=O)N1C (centres unmarked) [enniatin D, Enniatin D] | – | not observed | not different from that without addition of the drug | completely | accumulated rhodamine 6G | rhodamine 6G was accumulated in yeast cells | not observed |
| CC(C)[C@H]1C(=O)O[C@H](C(C)C)C(=O)N(C)[C@@H](C(C)C)C(=O)O[C@H](C(C)C)C(=O)N(C)[C@@H](C(C)C)C(=O)O[C@H](C(C)C)C(=O)N1C [enniatin B, Enniatin B] | – | not observed | not different from that without addition of the drug | completely | accumulated rhodamine 6G | rhodamine 6G was accumulated in yeast cells | not observed |
